Test results published in PMC7769561, “Antileishmanial activity of synthetic analogs of the naturally occurring quinolone alkaloid N-methyl-8-methoxyflindersin” (PLoS ONE, 2020).
In brackets after ≈: the same amount, converted by molar mass. Several values for one entry are separate records, joined by “and”; a condition that tells them apart may be missing. Identical values can stand only once.

Key:
in vitro = conditions: human
Method: We isolated hMDMs from buffy coats donated by the Institute of Local Science (Biotechnology and Health Innovation, Bogotá, Colombia) and spun them in Lymphoprep density gradient medium (Stem-Cell, Vancouver, Canada).
Next, we added 100 μL of this culture to each quinoline alkaloid–like compound at a concentration of 200, 20, 2, 0.2, and 0.02 μg/mL. […] Cells treated with amphotericin B (Sigma-Aldrich) were used as cell apoptosis (positive) controls. Results were expressed as the medial cytotoxic concentration (CC50) using Prism GraphPad software for nonlinear regression analysis (https://www.graphpad.com/scientific-software/prism/).
(§1) All assays required at least three independently duplicated experiments. We determined cytotoxicity against hMDMs and effectivity in L. (V) panamensis promastigotes according to each treatment’s mortality (compound and concentration) using Eq 1, where the control mean fluorescence intensity (MFI) was 100% viability: Validityinhibition(%)=100−[MIFexposedcells/MIFunexposedcells×100] (1)
(§2) We used GraphPad Prism nonlinear regression analysis to estimate the percentage mortality with regard to CC50 and EC50. […] The antileishmanial activity with regard to promastigotes was classified as active according to Eq 2: Active=EC50<[LC50/2], (2) where LC50 is the median lethal concentration. We also used GraphPad Prism nonlinear regression analysis to determine the intracellular antileishmanial activity (concentration vs. response), depending on the infection (number of infected cells) and parasite burden (number of parasites/cell) obtained in experimental conditions. Parasite inhibition was estimated using Eq 3, where the plate MFI is 100% parasites: Infectioninhibition(%)=100−[(MIFexposedparasites/MIFunexposedparasites×100)] (3)

[1] = test system: L. (V.) panamensis promastigotes; experiment: Antileishmanial activity in L. (V.) panamensis promastigotes (resazurin, 72 h); assay type: cell-based, Leishmania (Viannia) panamensis; conditions: L. (V.) panamensis promastigotes, ± SD; for EC50: read-out: EC50 Intracellular promastigotes (converted)
Method: They were treated with quinoline alkaloid–like compounds at a concentration of 100, 10, 1, 0.1, and 0.01 μg/mL for 72 h at 26°C. Next, we determined antileishmanial activity using the resazurin method (Sigma-Aldrich). Promastigotes treated with amphotericin B (Sigma-Aldrich) and pentamidine (Sanofi-Aventis, Gentilly, France) were used as parasite death (positive) controls. Results were expressed as the medial effective concentration (EC50) using Prism GraphPad software for nonlinear regression analysis (https://www.graphpad.com/scientific-software/prism/).
as §1, §2

[2] = test system: L. (V.) panamensis intracellular amastigotes; experiment: Antileishmanial activity in L. (V.) panamensis intracellular amastigotes in hMDMs; assay type: cell-based, Leishmania (Viannia) panamensis; conditions: for SI (selectivity index = CC50/EC50): CC50 hMDMs / EC50 intracellular amastigotes
Method: Next, 100 μL of the suspension was cultured in 96-well plates and infected with L. (V.) panamensis promastigotes (HMOM/COL/87/UA-140) at a 10:1 parasite:cell ratio. We incubated the plates in a 5% CO2 atmosphere for 4 h at 35°C. After incubation, we removed noninternalized parasites by washing the cells with 0.9% NaCl saline solution (Baxter International, Deerfield, IL, USA). The cells were incubated again for 24 h and then treated with each quinoline alkaloid–like compound at a concentration of 100, 10, 1, 0.1, and 0.01 μg/mL in a 5% CO2 atmosphere for 72 h at 36°C. Next, we quantified the percentage of infected cells using fluorescence microscopy, as previously described by Pérez-Cordero in 2011 [23], and quantified the parasite load (amount of intracellular promastigotes and amastigotes per cell) using Giemsa staining and flow cytometry (Cytomics FC 500 MPL; Beckman Coulter, Brea, CA, USA). […] Results were expressed as EC50 using Prism GraphPad software’s probit nonlinear regression analysis (https://www.graphpad.com/scientific-software/prism/).
as §2
The percentage inhibition was used to calculate EC50 by nonlinear regression analysis (fluorescence microscopy), while the parasite burden was evaluated as the percentage of intracellular promastigotes and amastigotes in 100 infected cells (Giemsa staining). […] The selectivity index (SI) was estimated using the following formula: SI=CC50/EC50

[3] = test system: L. (V.) panamensis intracellular amastigotes; experiment: as above; assay type: cell-based, Leishmania (Viannia) panamensis; conditions: 72 h, ± SD
hMDMs = experiment: Apoptosis in noninfected and L. (V.) panamensis-infected hMDMs (annexin V/7AAD flow cytometry); assay type: cell-based, human; conditions: compound at EC50, 72 h
Method: Next, the cells were fixed with 4% paraformaldehyde for evaluating dead cells using a live/dead cell viability kit (Beckton, Dickinson and Company, Franklin Lakes, NJ, USA). hMDMs cultured without any treatment were used as viability controls, while those treated with 0.01% H2O2, 10 μg/mL of lipopolysaccharide (LPS; Sigma-Aldrich), and 1% dimethyl sulfoxide (DMSO) were used as cell mortality (positive) controls. Apoptotic and necrotic cells were quantified using flow cytometry (FACS Canto II; Becton, Dickinson and Company).

[4] = test system: L. (V.) panamensis-infected hMDMs; experiment: ROS generation in L. (V.) panamensis-infected hMDMs (H2DCFDA flow cytometry); assay type: cell-based, human; conditions: compound at EC50, 4, 24, 48 and 72 h
Method: (§3) Next, we detached the cells with ethylenediaminetetraacetic acid (EDTA)/trypsin (Lonza, MD, USA) and 2',7'-dichlorodihydrofluorescein diacetate (H2DCFDA) tagged on a 5 μM fluorescent tube (Sigma-Aldrich) in order to identify intracellular ROS and/or 4-amino-5-methylamino-2′,7′-difluorofluorescein (DAF-FM; Sigma-Aldrich) for NO production in a 5% CO2 atmosphere for 45 min at 37°C. ROS and NO were quantified using flow cytometry (FACS Canto II) at a wavelength of 480 nm. Untreated cells were used as negative controls, while cells treated with 0.0001% H2O2 and 1 μM phorbol myristate acetate were used as ROS production (positive) controls. LPS (10 ng/mL) and phytohemagglutinin (PHA-M) (10 μL/mL) (Invitrogen) were used as positive controls for NO production.

[5] = test system: L. (V.) panamensis-infected hMDMs; experiment: NO production in L. (V.) panamensis-infected hMDMs (DAF-FM flow cytometry); assay type: cell-based, human
Method: as §3

[6] = test system: L. (V.) panamensis-infected hMDMs; experiment: Transmission electron microscopy of L. (V.) panamensis-infected hMDMs; assay type: cell-based, human; conditions: compound at EC50, 72 h, TEM; on Cell membrane (ultrastructural modification grade): key: -: no alteration/absence; +: low alteration/low presence; ++: alteration/moderate presence; +++: serious disturbance/abundant presence; on LB (lipid bodies, grade): key: -: no alteration/absence; +: low alteration/low presence; ++: alteration/moderate presence; +++: serious disturbance/abundant presence; on Mitochondria (ultrastructural modification grade): key: -: no alteration/absence; +: low alteration/low presence; ++: alteration/moderate presence; +++: serious disturbance/abundant presence; on Nucleus (ultrastructural modification grade): key: -: no alteration/absence; +: low alteration/low presence; ++: alteration/moderate presence; +++: serious disturbance/abundant presence
Text: (§4) This procedure involved including fresh resin and 100–200-nm-wide ultrafine cuts observed by TEM (100X–10.000X) (HITACHI-HU-12; Hitachi, Tokyo, Japan).

[7] = test system: L. (V.) panamensis intracellular amastigotes; experiment: Transmission electron microscopy of L. (V.) panamensis intracellular amastigotes in hMDMs; assay type: cell-based, Leishmania (Viannia) panamensis; design: Nucleus (ultrastructural alteration grade) / Vacuoles (ultrastructural alteration grade): key: -: no alteration/absence; +: low alteration/low presence; ++: alteration/moderate presence; +++: serious disturbance/abundant presence; conditions: compound at EC50, 72 h, TEM
Text: as §4

[8] = amastigotes in hMDMs, 72 h, ± SD

Question: Which CC50 at 72 h (in vitro) does the source give for `C[C@@H]1[C@H](O)[C@@H](C)/C=C/C=C/C=C/C=C/C=C/C=C/C=C/[C@H](O[C@@H]2O[C@H](C)[C@@H](O)[C@H](N)[C@@H]2O)C[C@@H]2O[C@](O)(C[C@@H](O)C[C@@H](O)[C@H](O)CC[C@@H](O)C[C@@H](O)CC(=O)O[C@H]1C)C[C@H](O)[C@H]2C(=O)O` [AMB, amphotericin B, reference compound] here?
Answer: 4.5 µg/mL and 4.9 µM

Question: What about the EC50 [1] of the same compound?
Answer: 0.3 µg/mL and 300 nM

Question: What about the “SI (selectivity index = CC50/EC50)” value [2] of the same compound?
Answer: 11.25

Question: What about the EC50 [3] of the same compound?
Answer: 0.4 µg/mL and 400 nM

Question: With `COc1ccc2c3c(c(=O)n(C)c2c1)C=CC(C)(C)O3` [Compound 1, N-methyl-8-methoxyflindersin] as the compound, how does the “EC50 Intracellular promastigotes” value [1] read?
Answer: 9.9 ± 3 µg/mL (≈ 36.5 µM)

Question: What about the EC50 [1] of the same compound?
Answer: 36.5 µM

Question: What about the “SI (selectivity index = CC50/EC50)” value [2] of the same compound?
Answer: 5.87

Question: What about the EC50 [2, 8] of the same compound?
Answer: 29.2 µM

Question: What about the “EC50 Intracellular amastigotes” value [2, 8] of the same compound?
Answer: 7.4 ± 1.95 µg/mL (≈ 27.3 µM)

Question: What about the Antileishmanial activity class ([2]; intracellular amastigotes, class by EC50) of the same compound?
Answer: high (high if EC50 < 25 μg/mL)

Question: What about the “Percentage of apoptotic cells (annexin V+ 7AAD–, Q3)” value (hMDMs; L. (V.) panamensis-infected hMDMs) of the same compound?
Answer: 41.3%

Question: And the “Percentage of apoptotic cells (annexin V+ 7AAD–, Q3)” value (hMDMs; noninfected (basal) hMDMs)?
Answer: 20.2%

Question: And the “ROS generation compared to infected control cells” value [4]?
Answer: no significant variations

Question: And the “NO production compared to untreated infected hMDMs” value ([5]; compound at EC50, 24, 48 and 72 h)?
Answer: increase in NO production

Question: And the NO production ([5]; compound at EC50, 72 h posttreatment)?
Answer: increase in NO production

Question: And the “Cell membrane (ultrastructural modification grade)” value [6]?
Answer: -

Question: What about the “LB (lipid bodies, grade)” value [6] of the same compound?
Answer: -

Question: What about the “Mitochondria (ultrastructural modification grade)” value [6] of the same compound?
Answer: +

Question: And the “Nucleus (ultrastructural modification grade)” value [6]?
Answer: -

Question: What about the “PV (description)” value [6] of the same compound?
Answer: Individuals, attached to the parasite

Question: What about the “PV (parasitophorous vacuoles, grade)” value [6] of the same compound?
Answer: +

Question: What about the “Parasites (grade)” value [6] of the same compound?
Answer: +

Question: And the “Vacuoles (description)” value [6]?
Answer: Double membrane (autophagic-digestives)

Question: And the “Vacuoles (ultrastructural modification grade)” value [6]?
Answer: ++

Question: And the “Cell membrane (description)” value [7]?
Answer: Integrity damage in membrane

Question: What about the “Cell membrane (ultrastructural alteration grade)” value [7] of the same compound?
Answer: +++

Question: And the “Flagellum (flagellar/axonema pocket) (grade)” value [7]?
Answer: -

Question: And the “LB (lipid bodies, grade)” value [7]?
Answer: -

Question: What about the “Mitochondria/Kinetoplasts (ultrastructural alteration grade)” value [7] of the same compound?
Answer: -

Question: What about the “Nucleus (description)” value [7] of the same compound?
Answer: Nuclear membrane damage

Question: And the “Nucleus (ultrastructural alteration grade)” value [7]?
Answer: +++

Question: What about the “PV (description)” value [7] of the same compound?
Answer: Individuals attached to the parasite

Question: What about the “PV (parasitophorous vacuoles, grade)” value [7] of the same compound?
Answer: +

Question: What about the “Vacuoles (description)” value [7] of the same compound?
Answer: Electrodense acidocalcisome type

Question: And the “Vacuoles (ultrastructural alteration grade)” value [7]?
Answer: ++

Question: Which CC50 at 72 h (in vitro) does the source give for `Cc1cc(=O)[nH]c2ccccc12` [Compound 4, 4-methyl-2-(1H)-quinolinone] here?
Answer: 95.2 µg/mL and 391 µM

Question: And the EC50 [1]?
Answer: 62.3 µg/mL and 256 µM

Question: What about the “SI (selectivity index = CC50/EC50)” value [2] of the same compound?
Answer: 1.66

Question: What about the EC50 [3] of the same compound?
Answer: 57.1 µg/mL and 256 µM
